# Counter-ions that a name gives are not always drawn.
# How the values were obtained:
# Assay type in all cases: physicochemical
# [1] = XRPD analysis of crystallinity; conditions: powder, ambient
# Protocol: X-ray powder diffraction (XRPD) analysis is performed on a Brüker—AXS D8 Advance diffractometer, using a copper anti-cathode, a mono-crystalline silicon sample holder and a position sensitive detector. Instrument operating conditions for X-rays pattern acquisition are described in Table 2.
# The powder sample is dispersed on the silicon sample holder in a way to avoid preferred orientation (not randomly oriented crystals) and to ensure planarity of the specimen surface.
# [2] = DSC analysis of crystalline phase; conditions: DSC endotherm
# Protocol: DSC spectra. TA Instrument, DSC Q10.
# DSC spectra were recorded on a TA DSC Q10 instrument within a temperature range of −10° C. to 300° C. or 400° C. and with 10° C. increments.
# [3] = salt formation results (physical form)
# Protocol: The hydrochloride, hydrobromide, acetate, tartrate, fumarate, malate, oxalate and sulphate salts of N-(3-(4-(3-(diisobutylamino)propyl)piperazin-1-yl)propyl)-1H-benzo[d]imidazol-2-amine were prepared according to procedures similar to those described in the previous examples or standard salt formation methods well known in the art.
# [4] = sample left standing open to the air (hygroscopicity, stability); conditions: listed as chloride salt
# Source text: Both sulphate salts precipitated as solids. They were found stable when left open to the air. In contrast to the chloride salt, no hygroscopicity issue was observed.
# [5] = Dynamic vapour sorption (DVS) with water
# Protocol: Dynamic vapour sorption (DVS) analyses with water were performed on a DVS-Intrisic incubator from SMS Ltd, equipped with DVS-Intrisic Control Software 1.0.
# A sample of about 5 to 10 mg, placed in an aluminium pan holder, was submitted to a full-cycle analysis (sorption followed by desorption) under the conditions described in Table 3.
# The sample was pre-dried under a stream of dry filtered air until a stable mass was obtained. Relative humidity was then increased by 5% increments. At each step, the sample was allowed to increase until equilibrium is reached (dm/dt criterion), then relative humidity was increased further. Relative humidity was ramped up to 95%. After equilibration at this stage, desorption is started in a similar stepwise manner, with a sample weight allowed to stabilize after each incremental humidity decrease step.
# DVS analysis was carried out according to the method described above.
compound,measurement,setting,value
"CC(C)CN(CCCN1CCN(CCCNc2nc3ccccc3[nH]2)CC1)CC(C)C.O=C(O)C(=O)O.O=C(O)C(=O)O.O=C(O)C(=O)O.O=C(O)C(=O)O [4 eq oxalate salt, N-(3-(4-(3-(diisobutylamino)propyl)piperazin-1-yl)propyl)-1H-benzo[d]imidazol-2-amine, 4 eq oxalate salt, reference compound]",crystallinity by XRPD,[1],little or poor crystallinity
same,crystalline phase by DSC,[2],most well shaped and defined endotherm
CC(=O)O [Acetate],Physical form,[3]; Acid eq. added 1,"No solid formed, oily residue"
same,Physical form,[3]; Acid eq. added 2,"No solid formed, oily residue"
Cl [Chloride],hygroscopicity,[4],very hygroscopic
"CC(C)CN(CCCN1CCN(CCCNc2nc3ccccc3[nH]2)CC1)CC(C)C [Example 1, N-(3-(4-(3-(diisobutylamino)propyl)piperazin-1-yl)propyl)-1H-benzo[d]imidazol-2-amine, 2.9 eq sulphate salt]",crystallinity by XRPD,[1]; sulphate salt,well good crystalline phase
"CC(C)CN(CCCN1CCN(CCCNc2nc3ccccc3[nH]2)CC1)CC(C)C.O=S(=O)(O)O [Example 3, N-(3-(4-(3-(diisobutylamino)propyl)piperazin-1-yl)propyl)-1H-benzo[d]imidazol-2-amine, 1 eq sulphate salt]",mass lost upon drying,[5]; 25° C./0% RH,0.18%
same,remaining amount of water upon desorption,[5]; 25° C./0% RH,4.6%
same,hygroscopicity (criterion: more than 2% by weight water uptake),[5]; 25° C./60% RH,not hygroscopic
same,water uptake upon sorption,"[5]; 25° C./60% RH, compared to sample mass after initial drying at 0% RH",0.7%
same,residual water remaining upon desorption,"[5]; 25° C./75% RH as printed, interval 95 to 90% RH",10%
same,hysteresis (adsorbed water retained upon desorption),"[5]; 25° C./75% RH, interval 75 to 10% RH",up to 6.7%
same,water uptake upon sorption,"[5]; 25° C./80% RH, compared to sample mass after initial drying at 0% RH",1.5%
same,water uptake upon sorption,"[5]; 25° C./90% RH, compared to sample mass after initial drying at 0% RH",9.7%
same,water vapour uptake upon sorption,"[5]; 25° C./95% RH, compared to sample mass after initial drying at 0% RH",19.4%
same,crystallinity by XRPD,[1],good crystallinity
"CC(C)CN(CCCN1CCN(CCCNc2nc3ccccc3[nH]2)CC1)CC(C)C [Example 4, N-(3-(4-(3-(diisobutylamino)propyl)piperazin-1-yl)propyl)-1H-benzo[d]imidazol-2-amine, 2 eq sulphate salt]",crystallinity by XRPD,[1],good crystallinity
"CC(C)CN(CCCN1CCN(CCCNc2nc3ccccc3[nH]2)CC1)CC(C)C.O.O.O=S(=O)(O)O [di-hydrated form of example 3, di-hydrated form of N-(3-(4-(3-(diisobutylamino)propyl)piperazin-1-yl)propyl)-1H-benzo[d]imidazol-2-amine, 1 eq sulphate salt]",stability and hygroscopicity in second DVS cycle,"[5]; 25° C., second sorption/desorption cycle",stable and non hygroscopic
same,"water uptake for the di-hydrated form, experimentally determined",[5]; DVS 25° C.,6.7%
same,theoretical water uptake for the di-hydrated form,[5]; calculated,6.8%
Fumarate,Physical form,[3]; Acid eq. added 1,Not crystalline^2
same,crystalline phase by DSC,[2],not crystalline
Malate,Physical form,[3]; Acid eq. added 1,Powder
Oxalate,Physical form,[3]; Acid eq. added 2,Gum
same,Physical form,[3]; Acid eq. added 3,Gum
same,Physical form,[3]; Acid eq. added 4,Crystalline powder
Sulphate,Physical form,[3]; Acid eq. added 1,Crystalline powder (colorless
same,Physical form,[3]; Acid eq. added 2,Crystalline powder (colorless
Tartrate,Physical form,[3]; Acid eq. added 1,Not crystalline^2
same,crystalline phase by DSC,[2],not crystalline

# From patent publication US10772884B2, “Sulphate salts of N-(3-(4-(3-(diisobutylamino)propyl)piperazin-1-yl)propyl)-1H-benzo[d]imidazol-2-amine, preparation thereof and use of the same” (ALZPROTECT, priority 2012, dated 2020)
